From patent publication US7956196B2, “1,3-dihydro-benzimidazol-2-ylidene amines as inhibitors of respiratory syncytial virus replication” (Tibotec Pharmaceuticals Ltd., priority 2005, dated 2011)

Legend:
[1] = test system: Respiratory Syncytial Virus; assay: In vitro screening for activity against RSV, automated tetrazolium-based (MTT) colorimetric assay in HeLa cells; assay type: cell-based; conditions: human respiratory syncytial virus, 168 h; protection against RSV cytopathology in HeLa cells, MTT readout seven days after infection; read-out: pIC50 (converted)
Description: In vitro screening of compounds of formula (I) for activity against RSV. The percent protection against cytopathology caused by viruses (antiviral activity or EC50) achieved by tested compounds and their cytotoxicity (CC50) are both calculated from dose-response curves. The selectivity of the antiviral effect is represented by the selectivity index (SI), calculated by dividing the CC50 (cytotoxic dose for 50% of the cells) by the EC50 (antiviral activity for 50% of the cells). The tables in the above experimental part list the category to which each of the prepared compounds belong: Compounds belonging to activity category “A” have a pEC50 (-log of EC50 when expressed in molar units) equal to or more than 7. Compounds belonging to activity category “B” have a pEC50 value between 6 and 7.
Automated tetrazolium-based colorimetric assays were used for determination of EC50 and CC50 of test compounds. Flat-bottom, 96-well plastic microtiter trays were filled with 180 μl of Eagle's Basal Medium, supplemented with 5% FCS (0% for FLU) and 20 mM Hepes buffer. Subsequently, stock solutions (7.8×final test concentration) of compounds were added in 45 μl volumes to a series of triplicate wells so as to allow simultaneous evaluation of their effects on virus- and mock-infected cells. Five five-fold dilutions were made directly in the microtiter trays using a robot system. Untreated virus controls, and HeLa cell controls were included in each test. Approximately 100 TCID50 of Respiratory Syncytial Virus was added to two of the three rows in a volume of 50 μl. The same volume of medium was added to the third row to measure the cytotoxicity of the compounds at the same concentrations as those used to measure the antiviral activity. After two hours of incubation, a suspension (4×10^5 cells/ml) of HeLa cells was added to all wells in a volume of 50 μl. The cultures were incubated at 37° C. in a 5% CO2 atmosphere. Seven days after infection the cytotoxicity and the antiviral activity was examined spectrophotometrically. To each well of the microtiter tray, 25 μl of a solution of MTT (3-(4,5-dimethylthiazol-2-yl)-2,5-diphenyltetrazolium bromide) was added. The trays were further incubated at 37° C. for 2 hours, after which the medium was removed from each cup. Solubilization of the formazan crystals was achieved by adding 100 μl 2-propanol. Complete dissolution of the formazan crystals were obtained after the trays have been placed on a plate shaker for 10 min. Finally, the absorbances were read in an eight-channel computer-controlled photometer (Multiskan MCC, Flow Laboratories) at two wavelengths (540 and 690 nm). The absorbance measured at 690 nm was automatically subtracted from the absorbance at 540 nm, so as to eliminate the effects of non-specific absorption.
The percent protection against cytopathology caused by viruses (antiviral activity or EC50) achieved by tested compounds and their cytotoxicity (CC50) were both calculated from dose-response curves. The selectivity of the antiviral effect is represented by the selectivity index (SI), calculated by dividing the CC50 (cytotoxic dose for 50% of the cells) by the EC50 (antiviral activity for 50% of the cells).

melting point	IC50 [1]	Compound
212 °C	63.1 nM	Cc1ccc(O)c(Cn2c(=NC3CCN(CCN)CC3)n(Cc3ccc(C#N)cc3)c3ccccc32)n1 [Compound 55]
204 °C	251 nM	Cc1ccc(O)c(Cn2c(=NCCc3ccc(Br)cc3)n(Cc3ccc(C#N)cc3)c3ccccc32)n1 [Compound 57]
195 °C	3.16 nM	Cc1ccc(CCCO)c(NCc2ccc3c(c2)n(Cc2nc(C)ccc2O)c(=N)n3C)c1 [Compound 58]
